Source: US20230165252A1, “ACTIVE COMPOUND COMBINATIONS” (Bayer Aktiengesellschaft, priority 2020, published 2023)
“And” between values parts separate entries of the source, which are not always exact repeats. Equal values may be shown once. Read-outs that look alike come from different tables or passages of the source.

Assays:
Type in all cases: cell-based
[1] = system: Colletotrichum lindemuthianum; test: in vitro-Test with Colletotrichum lindemuthianum (microtiter growth inhibition); settings: for inhibition of growth at 0.04 ppm: applied alone at 0.04 ppm; for inhibition of growth at 0.004 ppm: applied alone at 0.004 ppm; for inhibition of growth at 0.02 ppm: applied alone at 0.020 ppm; for inhibition of growth at 0.1 ppm: applied alone at 0.1 ppm; for inhibition of growth at 0.5 ppm: applied alone at 0.5 ppm
Protocol: The degree of efficacy expressed in % is denoted: 0% means an efficacy, which corresponds to that of the control, while an efficacy of 100% means that no disease is observed.
If the actual fungicidal activity exceeds the calculated value, then the activity of the combination is super-additive, i.e. a synergistic effect exists. In this case, the efficacy, which was actually observed, must be greater than the value for the expected efficacy (E), that was calculated from the abovementioned formula.
Example: In Vitro-Test with Fungal Microorganisms
Wells of 96-well microtiter plates are filled with 10 μl of a preparation of test compound or compound combination in methanol+emulsifier alkylaryl-polyglycol-ether. Thereafter, the solvent is evaporated in a hood. At the next step, 100 μl of liquid potato dextrose medium is given into each well, that has been amended with an appropriate concentration of spores or mycelium suspension of the test fungus.
With the aid of a photometer, the extinction in all wells is measured at the wavelength of 620 nm.
The microtiter plates are incubated at 20° C. and 85% relative humidity. The inhibition of growth is determined again photometrically 3-5 days after the application. Efficacy is calculated in relation to the untreated control, 0% efficacy means fungal growth as high as in untreated control while 100% efficacy means no fungal growth is measured.

Parastagonospora nodorum = test: in vitro-Test with Parastagonospora nodorum (microtiter growth inhibition)
Outline: (§1)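 Steps: dry the compound (methanol with alkylaryl-polyglycol-ether) in each well; add potato dextrose liquid medium containing fungal spores or mycelium; record 620 nm extinction; incubate at 20° C. and 85% relative humidity; re-measure photometrically after 3-5 days. Efficacy in % against untreated wells.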

[2] = system: Ustilago segetum var. avenae; test: in vitro-Test with Ustilago segetum var. avenae (microtiter growth inhibition); settings: for inhibition of growth at 0.02 ppm: 0.020 ppm
Outline: as §1

Botrytis cinerea = test: in vitro-Test with Botrytis cinerea (microtiter growth inhibition); settings: for inhibition of growth at 0.8 ppm: single active at 0.8 ppm; for Efficacy: applied alone
Outline: as §1

Cercospora beticola = test: in vitro-Test with Cercospora beticola (microtiter growth inhibition)
Outline: as §1

Alternaria alternate = test: in vitro-Test with Alternaria alternate (microtiter growth inhibition); settings: Alternaria, alone, read-out: Efficacy %
Outline: as §1

Cordana musae = test: in vitro-Test with Cordana musae (microtiter growth inhibition); settings: Neocordana musae, single substance, read-out: Efficacy; for inhibition of growth at 0.02 ppm: 0.020 ppm
Outline: as §1

Diaporthe citri = test: in vitro-Test with Diaporthe citri (microtiter growth inhibition); settings: Diaporthe citri, applied alone, read-out: Efficacy; for inhibition of growth at 0.02 ppm: 0.020 ppm
Outline: as §1

Fusarium culmorum = test: in vitro-Test with Fusarium culmorum (microtiter growth inhibition); settings: Fusarium culmorum, read-out: Efficacy; for inhibition of growth at 0.02 ppm: 0.020 ppm
Outline: as §1

[3] = Colletotrichum lindemuthianum, applied alone at 0.008 ppm, read-out: Efficacy %
[4] = Colletotrichum lindemuthianum, read-out: Efficacy %
[5] = Colletotrichum lindemuthianum, applied alone at 1.0 ppm, read-out: Efficacy %
[6] = Parastagonospora nodorum, compound alone, read-out: Efficacy %
[7] = compound alone, 0.2 ppm, read-out: Efficacy %
[8] = Botrytis cinerea, read-out: Efficacy %
[9] = Colletotrichum lindemuthianum, applied alone at 4 ppm, read-out: Efficacy %
[10] = Colletotrichum lindemuthianum, applied alone at 20 ppm, read-out: Efficacy %
[11] = Parastagonospora nodorum, compound alone, 0.004 ppm, read-out: Efficacy %
[12] = Parastagonospora nodorum, compound alone, 0.020 ppm, read-out: Efficacy %
[13] = Parastagonospora nodorum, compound alone, 0.1 ppm, read-out: Efficacy %
[14] = Parastagonospora nodorum, compound alone, 0.5 ppm, read-out: Efficacy %
[15] = compound alone, read-out: Efficacy %
[16] = single compound, read-out: Efficacy %

CC1COC(Cn2cncn2)(c2ccc(Oc3ccc(Cl)cc3)cc2Cl)O1 (stereo not drawn) [(1.002) difenoconazole]
inhibition of growth at 0.008 ppm [1, 3]: 2% | inhibition of growth at 0.04 ppm [1, 4]: 13% | inhibition of growth at 1 ppm [1, 5]: 13% | inhibition of growth at 0.04 ppm (Parastagonospora nodorum; [6]): 16% | inhibition of growth at 0.2 ppm (Parastagonospora nodorum; [6]): 83% | Efficacy % (Parastagonospora nodorum; compound alone, 0.008 ppm): 0% | Efficacy % (Parastagonospora nodorum; compound alone, 1.0 ppm): 97% | inhibition of growth at 0.008 ppm ([2]; compound alone, 0.008 ppm, read-out: Efficacy %): 14% | inhibition of growth at 0.2 ppm [2, 7]: 57%

O=C(NCCc1ncc(C(F)(F)F)cc1Cl)c1ccccc1C(F)(F)F [(2.005) fluopyram]
inhibition of growth at 0.8 ppm (Botrytis cinerea; [8]): 66% | inhibition of growth at 4 ppm (Botrytis cinerea; Botrytis cinerea, single active at 4 ppm, read-out: Efficacy %): 64% | inhibition of growth at 0.8 ppm ([1]; Colletotrichum lindemuthianum, applied alone at 0.8 ppm, read-out: Efficacy %): 14% | inhibition of growth at 4 ppm [1, 9]: 7% | inhibition of growth at 20 ppm [1, 10]: 19% | inhibition of growth at 0.8 ppm (Parastagonospora nodorum; Parastagonospora nodorum, compound alone, 0.8 ppm, read-out: Efficacy %): 32% | inhibition of growth at 4 ppm (Parastagonospora nodorum; Parastagonospora nodorum, compound alone, 4 ppm, read-out: Efficacy %): 41% | inhibition of growth at 20 ppm (Parastagonospora nodorum; Parastagonospora nodorum, compound alone, 20 ppm, read-out: Efficacy %): 65%

CC(C)c1ccc(Cl)cc1CN(C(=O)c1c(C(F)F)nn(C)c1F)C1CC1 [(2.038) isoflucypram]
Efficacy % (Botrytis cinerea; single active at 0.04 ppm): 43% and 57% | Efficacy % (Botrytis cinerea; single active at 0.2 ppm): 63% and 75% | Efficacy % (Botrytis cinerea; single active at 1.0 ppm): 83% and 87% | Efficacy % ([1]; applied alone at 0.008 ppm): 15% and 8% | Efficacy % ([1]; applied alone at 1.0 ppm): 5% | Efficacy % ([2]; compound alone, 0.008 ppm): 7% | Efficacy % ([2]; compound alone, 0.2 ppm): 100% and 98% | Efficacy % ([2]; compound alone, 1.0 ppm): 100%

CON=C(C(=O)OC)c1ccccc1CON=C(C)c1cccc(C(F)(F)F)c1 [(3.020) trifloxystrobin]
inhibition of growth at 0.008 ppm (Botrytis cinerea; Botrytis cinerea, single active at 0.008 ppm, read-out: Efficacy %): 0% | inhibition of growth at 0.2 ppm (Botrytis cinerea; Botrytis cinerea, single active at 0.2 ppm, read-out: Efficacy %): 3% | inhibition of growth at 1 ppm (Botrytis cinerea; Botrytis cinerea, single active at 1.0 ppm, read-out: Efficacy %): 14% | inhibition of growth at 0.008 ppm [1, 3]: 27% | inhibition of growth at 0.04 ppm [1, 4]: 56% | inhibition of growth at 0.2 ppm ([1]; Colletotrichum lindemuthianum, applied alone at 0.2 ppm, read-out: Efficacy %): 78% | inhibition of growth at 1 ppm [1, 5]: 79% | Efficacy % ([1]; applied alone at 0.2 ppm): 77% | inhibition of growth at 0.008 ppm (Parastagonospora nodorum; Parastagonospora nodorum, compound alone, 0.008 ppm, read-out: Efficacy %): 36% | inhibition of growth at 0.04 ppm (Parastagonospora nodorum; [6]): 61% | inhibition of growth at 0.2 ppm (Parastagonospora nodorum; [6]): 75% | inhibition of growth at 1 ppm (Parastagonospora nodorum; Parastagonospora nodorum, compound alone, 1.0 ppm, read-out: Efficacy %): 83% | inhibition of growth at 0.2 ppm [2, 7]: 53% | inhibition of growth at 1 ppm ([2]; compound alone, 1.0 ppm, read-out: Efficacy %): 82%

CCO[PH](=O)[O-].CCO[PH](=O)[O-].CCO[PH](=O)[O-].[Al+3] [(15.012) fosetyl-aluminium]
Efficacy % (Cercospora beticola; applied alone at 0.8 ppm): 0% | Efficacy % (Cercospora beticola; applied alone at 4 ppm): 0% | Efficacy % (Cercospora beticola; applied alone at 20 ppm): 4% | Efficacy % (Cercospora beticola; applied alone at 100 ppm): 15% | Efficacy % ([1]; applied alone at 0.8 ppm): 0% | Efficacy % ([1]; applied alone at 4 ppm): 7% | Efficacy % ([1]; applied alone at 20 ppm): 0% | Efficacy % ([1]; applied alone at 100 ppm): 53% | Efficacy % (Parastagonospora nodorum; compound alone, 0.8 ppm): 0% | Efficacy % (Parastagonospora nodorum; compound alone, 4 ppm): 2%

COc1cc(C)c(C(=O)c2c(OC)ccc(Br)c2C)c(OC)c1OC [(15.016) metrafenone]
inhibition of growth at 0.8 ppm (Botrytis cinerea; [8]): 0% | inhibition of growth at 0.8 ppm (Cercospora beticola; Cercospora beticola, applied alone at 0.8 ppm, read-out: Efficacy %): 0% | inhibition of growth at 4 ppm (Cercospora beticola; Cercospora beticola, applied alone at 4 ppm, read-out: Efficacy %): 13% | inhibition of growth at 4 ppm [1, 9]: 15% | inhibition of growth at 20 ppm [1, 10]: 10%

Cc1ccc(C(F)(F)CNC(=O)c2c(Oc3cccc(C4CC4)c3F)nnc(Cl)c2C)c(C)c1 [Compound I-655, 6-chloro-3-(3-cyclopropyl-2-fluorophenoxy)-N-[2-(2,4-dimethylphenyl)-2,2-difluoroethyl]-5-methylpyridazine-4-carboxamide]
inhibition of growth at 0.004 ppm (Alternaria alternate): 0% | inhibition of growth at 0.02 ppm (Alternaria alternate): 0% | inhibition of growth at 0.1 ppm (Alternaria alternate): 20% | inhibition of growth at 0.5 ppm (Alternaria alternate): 100% | Efficacy (Botrytis cinerea; 0.004 ppm): 0% | Efficacy (Botrytis cinerea; 0.020 ppm): 0% | Efficacy (Botrytis cinerea; 0.1 ppm): 58% | Efficacy (Botrytis cinerea; 0.5 ppm): 100% | inhibition of growth at 0.004 ppm [1, 4]: 0% | inhibition of growth at 0.02 ppm [1, 4]: 20% | inhibition of growth at 0.1 ppm [1, 4]: 98% | inhibition of growth at 0.5 ppm [1, 4]: 100% | inhibition of growth at 0.004 ppm (Cordana musae): 2% | inhibition of growth at 0.02 ppm (Cordana musae): 4% | inhibition of growth at 0.1 ppm (Cordana musae): 100% | inhibition of growth at 0.5 ppm (Cordana musae): 100% | inhibition of growth at 0.004 ppm (Diaporthe citri): 0% | inhibition of growth at 0.02 ppm (Diaporthe citri): 0% | inhibition of growth at 0.1 ppm (Diaporthe citri): 13% | inhibition of growth at 0.5 ppm (Diaporthe citri): 100% | inhibition of growth at 0.004 ppm (Fusarium culmorum): 0% | inhibition of growth at 0.02 ppm (Fusarium culmorum): 7% | inhibition of growth at 0.1 ppm (Fusarium culmorum): 7% | inhibition of growth at 0.5 ppm (Fusarium culmorum): 19% | Efficacy (Parastagonospora nodorum; 0.004 ppm): 0% | Efficacy (Parastagonospora nodorum; 0.020 ppm): 0% | Efficacy (Parastagonospora nodorum; 0.1 ppm): 41% | Efficacy (Parastagonospora nodorum; 0.5 ppm): 100% | inhibition of growth at 0.004 ppm (Parastagonospora nodorum; [11]): 0% | inhibition of growth at 0.02 ppm (Parastagonospora nodorum; [12]): 0% | inhibition of growth at 0.1 ppm (Parastagonospora nodorum; [13]): 41% | inhibition of growth at 0.5 ppm (Parastagonospora nodorum; [14]): 100% | inhibition of growth at 0.004 ppm [2, 15]: 7% | inhibition of growth at 0.02 ppm [2, 15]: 6% | inhibition of growth at 0.1 ppm [2, 15]: 0% | inhibition of growth at 0.5 ppm [2, 15]: 0%

Cc1ccc(C(F)(F)CNC(=O)c2c(Oc3cccc(C4CC4)c3F)nnc(Cl)c2C)c(Cl)c1 [Compound I-746, 6-chloro-N-[2-(2-chloro-4-methylphenyl)-2,2-difluoroethyl]-3-(3-cyclopropyl-2-fluoro-phenoxy)-5-methylpyridazine-4-carboxamide]
inhibition of growth at 0.004 ppm (Alternaria alternate): 0% | inhibition of growth at 0.02 ppm (Alternaria alternate): 0% | inhibition of growth at 0.1 ppm (Alternaria alternate): 22% | inhibition of growth at 0.5 ppm (Alternaria alternate): 100% | inhibition of growth at 0.004 ppm (Cercospora beticola; Cercospora beticola, alone, 0.004 ppm, read-out: Efficacy %): 0% | inhibition of growth at 0.02 ppm (Cercospora beticola; Cercospora beticola, alone, 0.020 ppm, read-out: Efficacy %): 5% | inhibition of growth at 0.1 ppm (Cercospora beticola; Cercospora beticola, alone, 0.1 ppm, read-out: Efficacy %): 4% | inhibition of growth at 0.5 ppm (Cercospora beticola; Cercospora beticola, alone, 0.5 ppm, read-out: Efficacy %): 26% | inhibition of growth at 0.004 ppm [1, 4]: 0% | inhibition of growth at 0.02 ppm [1, 4]: 14% | inhibition of growth at 0.1 ppm [1, 4]: 100% | inhibition of growth at 0.5 ppm [1, 4]: 100% | inhibition of growth at 0.004 ppm (Cordana musae): 0% | inhibition of growth at 0.02 ppm (Cordana musae): 10% | inhibition of growth at 0.1 ppm (Cordana musae): 79% | inhibition of growth at 0.5 ppm (Cordana musae): 100% | inhibition of growth at 0.004 ppm (Diaporthe citri): 0% | inhibition of growth at 0.02 ppm (Diaporthe citri): 0% | inhibition of growth at 0.1 ppm (Diaporthe citri): 2% | inhibition of growth at 0.5 ppm (Diaporthe citri): 51% | inhibition of growth at 0.004 ppm (Fusarium culmorum): 0% | inhibition of growth at 0.02 ppm (Fusarium culmorum): 0% | inhibition of growth at 0.1 ppm (Fusarium culmorum): 0% | inhibition of growth at 0.5 ppm (Fusarium culmorum): 0% | inhibition of growth at 0.004 ppm (Parastagonospora nodorum; [11]): 0% | inhibition of growth at 0.02 ppm (Parastagonospora nodorum; [12]): 0% | inhibition of growth at 0.1 ppm (Parastagonospora nodorum; [13]): 31% | inhibition of growth at 0.5 ppm (Parastagonospora nodorum; [14]): 100% | inhibition of growth at 0.004 ppm [2, 15]: 0% | inhibition of growth at 0.02 ppm [2, 15]: 2% | inhibition of growth at 0.1 ppm [2, 15]: 0% | inhibition of growth at 0.5 ppm [2, 15]: 0% | inhibition of growth at 0.004 ppm [2, 16]: 0% | inhibition of growth at 0.02 ppm [2, 16]: 2% | inhibition of growth at 0.1 ppm [2, 16]: 0% | inhibition of growth at 0.5 ppm [2, 16]: 0%
